Laboratory results from article PMC4780864, “Family-wide Structural Analysis of Human Numb-Associated Protein Kinases” (Structure(London, England:1993), 2016).

What was measured:
Assay in all cases: biochemical
AAK1 = AAK1 (Homo sapiens, UniProt Q2M2I8); parameters: kinase domain; Thermal shift assay (DSF, SYPRO Orange), 2 uM kinase domain, mean delta Tm of triplicates versus DMSO; conditions: read-out: AAK1
Procedure: (§1) All measurements were performed in triplicate and mean values were reported for all compounds (Table S1). […] However, NAKs are often omitted from selectivity panels, including commercial screens.

BIKE = molecular target: T1, BIKE (Homo sapiens, UniProt Q9NSY1); parameters: Thermal shift assay (DSF, SYPRO Orange), 2 uM kinase domain, mean delta Tm of triplicates versus DMSO; conditions: read-out: BIKE
T1 construct: gene BMP2K; catalytic domain-containing construct
T1 sequence (Q9NSY1 whole entry, the tested form may be a part): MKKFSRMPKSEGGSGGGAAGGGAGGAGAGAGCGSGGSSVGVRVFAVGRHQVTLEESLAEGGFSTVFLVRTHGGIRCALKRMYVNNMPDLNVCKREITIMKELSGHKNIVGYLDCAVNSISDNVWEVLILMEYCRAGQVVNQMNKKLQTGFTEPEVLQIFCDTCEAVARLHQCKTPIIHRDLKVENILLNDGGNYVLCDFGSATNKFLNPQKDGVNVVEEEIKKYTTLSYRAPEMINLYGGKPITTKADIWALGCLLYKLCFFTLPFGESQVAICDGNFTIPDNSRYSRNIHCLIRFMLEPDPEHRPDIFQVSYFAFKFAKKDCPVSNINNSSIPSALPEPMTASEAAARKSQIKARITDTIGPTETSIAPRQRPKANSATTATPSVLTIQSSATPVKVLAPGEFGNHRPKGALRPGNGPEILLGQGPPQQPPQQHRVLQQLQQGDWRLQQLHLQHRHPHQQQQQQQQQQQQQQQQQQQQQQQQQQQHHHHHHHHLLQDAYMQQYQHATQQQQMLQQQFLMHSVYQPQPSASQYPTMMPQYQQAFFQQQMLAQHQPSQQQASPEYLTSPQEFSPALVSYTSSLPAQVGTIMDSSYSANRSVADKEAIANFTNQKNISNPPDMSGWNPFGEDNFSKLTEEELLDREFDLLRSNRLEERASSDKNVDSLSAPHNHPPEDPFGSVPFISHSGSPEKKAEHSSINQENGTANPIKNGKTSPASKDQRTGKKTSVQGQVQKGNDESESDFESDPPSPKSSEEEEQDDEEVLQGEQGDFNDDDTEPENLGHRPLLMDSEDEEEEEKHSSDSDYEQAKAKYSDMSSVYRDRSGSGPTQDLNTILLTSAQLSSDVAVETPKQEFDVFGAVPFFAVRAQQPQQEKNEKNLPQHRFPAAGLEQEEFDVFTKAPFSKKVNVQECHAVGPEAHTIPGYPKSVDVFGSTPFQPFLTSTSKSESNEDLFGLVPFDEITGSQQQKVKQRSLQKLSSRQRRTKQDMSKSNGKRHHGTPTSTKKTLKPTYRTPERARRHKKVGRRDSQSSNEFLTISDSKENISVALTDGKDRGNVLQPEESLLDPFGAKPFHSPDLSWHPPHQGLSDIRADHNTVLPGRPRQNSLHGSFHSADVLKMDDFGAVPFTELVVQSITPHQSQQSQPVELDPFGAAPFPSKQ
Procedure: as §1

MPSK1 = molecular target: T2, MPSK1 (Homo sapiens, UniProt O75716); parameters: Thermal shift assay (DSF, SYPRO Orange), 2 uM kinase domain, mean delta Tm of triplicates versus DMSO; conditions: read-out: MPSK1
T2 construct: gene STK16; catalytic domain-containing construct
T2 sequence (O75716 whole entry, the tested form may be a part): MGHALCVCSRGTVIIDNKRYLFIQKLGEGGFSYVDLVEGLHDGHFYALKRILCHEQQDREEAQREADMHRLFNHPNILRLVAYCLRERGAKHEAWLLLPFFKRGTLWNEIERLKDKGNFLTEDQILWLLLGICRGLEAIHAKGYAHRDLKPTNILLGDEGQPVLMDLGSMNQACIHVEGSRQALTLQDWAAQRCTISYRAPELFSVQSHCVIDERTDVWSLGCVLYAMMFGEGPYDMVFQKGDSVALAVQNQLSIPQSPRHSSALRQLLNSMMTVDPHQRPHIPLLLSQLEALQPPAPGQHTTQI
Procedure: as §1

GAK = molecular target: T3, GAK (Homo sapiens, UniProt O14976); parameters: Thermal shift assay (DSF, SYPRO Orange), 2 uM kinase domain, mean delta Tm of triplicates versus DMSO; conditions: for ΔTm at 12.5 µM: read-out: GAK
T3 construct: catalytic domain-containing construct
T3 sequence (O14976 1-1311): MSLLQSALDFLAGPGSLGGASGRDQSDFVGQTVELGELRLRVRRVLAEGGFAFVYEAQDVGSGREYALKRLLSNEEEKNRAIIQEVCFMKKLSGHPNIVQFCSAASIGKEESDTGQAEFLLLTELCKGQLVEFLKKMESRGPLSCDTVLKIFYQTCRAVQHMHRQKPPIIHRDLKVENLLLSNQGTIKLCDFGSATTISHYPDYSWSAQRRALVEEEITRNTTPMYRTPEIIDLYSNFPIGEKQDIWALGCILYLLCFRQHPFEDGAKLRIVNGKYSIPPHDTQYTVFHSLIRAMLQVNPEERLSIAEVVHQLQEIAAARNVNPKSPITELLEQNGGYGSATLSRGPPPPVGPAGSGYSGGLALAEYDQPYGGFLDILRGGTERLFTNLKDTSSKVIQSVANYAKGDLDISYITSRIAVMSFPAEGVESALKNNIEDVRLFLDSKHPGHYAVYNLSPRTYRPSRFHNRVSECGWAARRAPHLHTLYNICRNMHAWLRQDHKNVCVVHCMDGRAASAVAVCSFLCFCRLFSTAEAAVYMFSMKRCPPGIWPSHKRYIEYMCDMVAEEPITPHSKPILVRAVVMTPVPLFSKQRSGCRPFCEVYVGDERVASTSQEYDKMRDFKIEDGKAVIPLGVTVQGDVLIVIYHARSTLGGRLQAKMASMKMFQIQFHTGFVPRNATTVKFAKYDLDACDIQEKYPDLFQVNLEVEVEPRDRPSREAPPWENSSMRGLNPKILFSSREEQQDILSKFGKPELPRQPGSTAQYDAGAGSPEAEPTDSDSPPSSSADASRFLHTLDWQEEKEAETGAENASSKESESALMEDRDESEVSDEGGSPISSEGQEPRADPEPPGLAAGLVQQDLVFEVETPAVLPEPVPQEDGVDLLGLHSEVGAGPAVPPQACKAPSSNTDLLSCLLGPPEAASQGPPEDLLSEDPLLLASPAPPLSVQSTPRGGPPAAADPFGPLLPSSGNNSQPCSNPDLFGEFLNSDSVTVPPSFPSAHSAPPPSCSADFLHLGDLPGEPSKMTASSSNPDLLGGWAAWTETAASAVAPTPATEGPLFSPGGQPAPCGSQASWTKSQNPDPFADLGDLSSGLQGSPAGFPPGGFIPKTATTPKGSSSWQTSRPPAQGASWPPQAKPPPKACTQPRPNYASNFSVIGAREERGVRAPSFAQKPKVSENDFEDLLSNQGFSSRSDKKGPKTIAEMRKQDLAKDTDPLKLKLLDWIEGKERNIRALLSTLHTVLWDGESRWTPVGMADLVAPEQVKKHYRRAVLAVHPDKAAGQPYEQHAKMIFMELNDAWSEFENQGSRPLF
Procedure: as §1

AAK1, sequence (Q2M2I8 27-365 limits assumed): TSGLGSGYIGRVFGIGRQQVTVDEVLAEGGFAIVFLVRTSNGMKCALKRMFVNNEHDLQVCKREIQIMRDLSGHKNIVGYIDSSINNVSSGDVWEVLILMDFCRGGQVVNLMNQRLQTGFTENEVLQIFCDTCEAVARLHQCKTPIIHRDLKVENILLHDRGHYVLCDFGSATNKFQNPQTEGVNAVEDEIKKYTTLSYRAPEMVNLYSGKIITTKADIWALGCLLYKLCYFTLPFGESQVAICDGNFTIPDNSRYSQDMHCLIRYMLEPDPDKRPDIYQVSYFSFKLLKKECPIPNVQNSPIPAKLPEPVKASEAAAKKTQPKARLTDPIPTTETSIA

Row | ΔTm at 12.5 µM (AAK1) [°C] | ΔTm at 12.5 µM (BIKE) [°C] | ΔTm at 12.5 µM (MPSK1) [°C] | ΔTm at 12.5 µM (GAK) [°C] | GAK (GAK; 12.5 µM) [°C] | Compound
1 | 0.79 | 0.493 | 0.74 | -0.86 |  | CN1CCC(COc2cnc(-c3cccc(Cn4nc(-c5cccc(C#N)c5)ccc4=O)c3)nc2)CC1 [EMD1214063]
2 | 6.88 | 14.2 | 0.11 | 0.24 |  | Oc1c2ccccc2c2c3c(cccc13)N=N2 [SP600125]
3 | 5.22 | 12 | 10.7 | 3.35 |  | CCS(=O)(=O)c1cccc(-c2cc(C(=O)NC3CCN(C)CC3)c(C)c3[nH]c4ncc(C)cc4c23)c1 [TAK-901]
4 | 1.25 | 4.41 | 0.99 | 1.58 |  | CCn1c(C(=O)N(C2CC2)C2CC2)cc2c3c(ncn3C)c(Nc3cc(C)n(C)n3)nc21 [BMS-911543]
5 | 8.29 | 13 | 8.84 | 7.69 |  | O=C(O)c1ccc(-c2c[nH]c3ncc(-c4ccccc4)cc23)cc1C1CCCC1 [GSK650394]
6 | 0.483 | 2.91 | 5.21 | -0.337 |  | C[C@@]1(C(=O)Nc2ccc(F)nc2)CCCN1c1nc(Nc2cc(C3CC3)n[nH]2)c2cccn2n1 [BMS-754807]
7 | 1.45 | 1.07 | 1.67 | 7.37 |  | Cn1c(Nc2ccc(C(F)(F)F)cc2)nc2cc(Oc3ccnc(-c4ncc(C(F)(F)F)[nH]4)c3)ccc21 [RAF265]
8 | 5 | 7.9 | 9.97 | 3.07 |  | Cc1ccc([N+](=O)[O-])cc1S(=O)(=O)N(C)/N=C/c1cnc2ccc(Br)cn12 [PIK-75]
9 | 4.44 | 6.41 | 5.04 | 0.667 |  | Cc1cc(Nc2nc(N[C@@H](C)c3ncc(F)cn3)ncc2Cl)[nH]n1 [AZD1480]
10 | 0.04 | 0.12 | 0.947 | -0.753 |  | COc1ccc(-c2ccc3c(N4CCOC[C@@H]4C)nc(N4CCOC[C@@H]4C)nc3n2)cc1CO [AZD8055]
11 | 0.0767 | 0.31 | 0.92 | -0.547 |  | COc1cccc2cc(-c3nc([C@H]4CC[C@H](C(=O)O)CC4)n4ncnc(N)c34)[nH]c12 [OSI-027]

The next lines start with the compound.

Row | Compound | ΔTm at 12.5 µM (AAK1) [°C] | ΔTm at 12.5 µM (BIKE) [°C] | ΔTm at 12.5 µM (MPSK1) [°C] | ΔTm at 12.5 µM (GAK) [°C] | GAK (GAK; 12.5 µM) [°C]
12 | CO[C@@H](C(=O)N1Cc2[nH]nc(NC(=O)c3ccc(N4CCN(C)CC4)cc3)c2C1)c1ccccc1 [Danusertib] | 1.74 | 1.68 | 2.36 | 0.59 | 
13 | Nc1nccc(-c2c(-c3ccc(F)cc3)ncn2C2CCCCC2)n1 [PF-670462] | 1.68 | 1.04 | 1.83 | 6.13 | 
14 | CS(=O)(=O)CCNCc1ccc(-c2ccc3ncnc(Nc4ccc(OCc5cccc(F)c5)c(Cl)c4)c3c2)o1 [Lapatinib] | 1.7 | 1.13 | 1.16 | 1.67 | 
15 | C#Cc1cccc(Nc2ncnc3cc4c(cc23)OCCOCCOCCO4)c1 [Icotinib] | 2.56 | 4.47 | 0.81 | 3.33 | 
16 | CN1CCN(c2nc(C3=C(c4c[nH]c5ccccc45)C(=O)NC3=O)c3ccccc3n2)CC1 [Sotrastaurin] | 1.63 | 3.16 | 1.8 | 0.62 | 
17 | Cc1nc(Nc2ncc(C(=O)Nc3c(C)cccc3Cl)s2)cc(N2CCN(CCO)CC2)n1 [Dasatinib] | 0.363 | -0.673 | 0.0333 |  | 0.14
18 | COc1cc(F)c(F)c(Nc2ccc(I)cc2F)c1NS(=O)(=O)C1(C[C@H](O)CO)CC1 [Refametinib] | -0.0333 | -0.02 | 0.663 | -1.26 | 
19 | CN[C@@H]1C[C@H]2O[C@@](C)([C@@H]1OC)n1c3ccccc3c3c4c(c5c6ccccc6n2c5c31)C(=O)N[C@H]4O [UCN-01] | 9.91 | 13.1 | 4.49 | 4.03 | 
20 | N#CC1(c2ccc(NC(=O)c3cccnc3NCc3ccncc3)cc2)CCCC1 [Apatinib] | 0.223 | 0.843 | 0.55 | -0.113 | 
21 | CCOc1cc2ncc(C#N)c(Nc3ccc(OCc4ccccn4)c(Cl)c3)c2cc1NC(=O)/C=C/CN(C)C [Neratinib] | 0.98 | 1.97 | 0.927 | 2.52 | 
22 | C=CCn1c(=O)c2cnc(Nc3ccc(N4CCN(C)CC4)cc3)nc2n1-c1cccc(C(C)(C)O)n1 [MK-1775] | 4.03 | 4.38 | 1.18 | 5.08 | 
23 | COc1cc2c(Oc3ccc(NC(=O)C4(C(=O)Nc5ccc(F)cc5)CC4)cc3F)ccnc2cc1OCCCN1CCOCC1 [Foretinib] | 1.13 | 1.32 | 1.87 | 2.36 | 
24 | CO[C@@H]1[C@H](N(C)C(=O)c2ccccc2)C[C@H]2O[C@]1(C)n1c3ccccc3c3c4c(c5c6ccccc6n2c5c31)C(=O)NC4 [Midostaurin] | 12.8 | 14.9 | 10.4 | 6.33 | 
25 | CC(C)(C)c1cc(NC(=O)Nc2ccc(-c3cn4c(n3)sc3cc(OCCN5CCOCC5)ccc34)cc2)no1 [Quizartinib] | 0.43 | 0.54 | 0.333 | 0.0333 | 
26 | C[C@@H]1CCN(C(=O)CC#N)C[C@@H]1N(C)c1ncnc2[nH]ccc12 [Tofacitinib] | 0.68 | 2.18 | 1.35 | -0.58 | 
27 | CC[C@H](Nc1ncnc2[nH]cnc12)c1nc2cccc(F)c2c(=O)n1-c1ccccc1 [Idelalisib] | 0.29 | 0.527 | 1.52 | 1.01 | 
28 | CN1CC[C@H](c2c(O)cc(O)c3c(=O)cc(-c4ccccc4Cl)oc23)[C@H](O)C1 [Alvocidib] | 1.86 | 1.46 | 1.55 | 1.31 | 
29 | CNC(=O)c1cc(Oc2ccc(NC(=O)Nc3ccc(Cl)c(C(F)(F)F)c3)c(F)c2)ccn1 [Regorafenib] | 1.02 | 0.423 | 0.88 | 5.87 | 
30 | CCN(CCO)CCCOc1ccc2c(Nc3cc(CC(=O)Nc4cccc(F)c4)[nH]n3)ncnc2c1 [AZD1152-HQPA] |  | 2.02 | 0.953 | -0.54 | 
31 | Cc1ccc(Nc2nccc(N(C)c3ccc4c(C)n(C)nc4c3)n2)cc1S(N)(=O)=O [Pazopanib] | 3.85 | 7.25 | 7.31 | 2.72 | 
32 | C#Cc1cccc(Nc2ncnc3cc(OCCOC)c(OCCOC)cc23)c1 [Erlotinib] | 2.7 | 5.66 | 0.883 | 3.74 | 
33 | CS(=O)(=O)N1CCN(Cc2cc3nc(-c4cccc5[nH]ncc45)nc(N4CCOCC4)c3s2)CC1 [Pictilisib] | 2.3 | 4.67 | 5.92 |  | 
34 | CC[C@@H]1C(=O)N(C)c2cnc(Nc3ccc(C(=O)NC4CCN(C)CC4)cc3OC)nc2N1C1CCCC1 [BI 2536] |  |  |  | 4.13 | 
